Results on six compounds are retold here after patent publication US5219866A, “Octadecyl-[2-(N-methylpiperidino)-ethyl]-phosphate and a process for its preparation” (Asta Medica AG, priority 1991, dated 1993).

For assay [1], the system named is human KB tumor cell line which is transplanted in nude mice. Nature of the assay: Growth inhibition index WHI in vivo, human KB tumour cell line transplanted into nude mice. The following applies: for Growth inhibition index WHI in % in vivo/humane KB tumour cell line transplanted into nude: 14th day after treatment related to the value on the day of application, WHI >100% = tumors became smaller. The arrangement: species or system human (KB tumour); nude mice (host). The method, then: Growth inhibition index WHI in % in vivo/humane
Substance KB tumour cell line transplanted into nude
The growth inhibition index WHI is determined in the human KB tumor cell line which is transplanted in nude mice. The growth inhibition index is defined as follows: [formula] of the treated group or in the control group on the 14th day after treatment related to the value on the day of application. […] In other words, the higher the WHI, the stronger the antitumor efficacy of a test substance.
(§1) The compounds of the invention display a good antineoplastic effect in the KB tumor (human carcinoma of the buccal cavity, transplanted subcutaneously to nude mice) and in autochthonous, chemically-induced DMBA-breast gland cancer in the rat.

Assay [2] concerns Human KB tumour cell line. Nature of the assay: EC90, growth inhibition of human KB tumour cell line in vitro. It counts as cell-based. The following applies: concentration which inhibits growth of cancer cells in vitro by 90%, read-out: ECqo in μg/ml Human KB tumour cell line in vitro. The method, then:
Human KB tumour cell line in
The EC90 is determined in vitro in the same cell line. The EC90 is the concentration of substance having an antitumor effect in μg/ml which inhibits the growth of cancer cells in vitro by 90% in comparison to a control experiment without addition of the antitumor-acting substance.

In assay [3] the test system is DMBA-breast gland cancer. Nature of the assay: autochthonous, chemically-induced DMBA-breast gland cancer in the rat. The format is in vivo. The following applies: oral, 21.5 mg/kg body weight daily, 14-day treatment.
Description: as §1

The subject of assay [4] is blood platelet aggregation. In words: inhibition of blood platelet aggregation. The format is cell-based.
Assay [5] concerns phospholipase-A2. Nature of the assay: phospholipase-A2 inhibition. The format is biochemical.
For assay [6], the system named is lipoxygenase. Nature of the assay: lipoxygenase inhibition. It counts as biochemical.

Values after ≈ are worked out from the molar mass of the structure shown. A value given as a limit tells only on which side of the number the result lay.

For the compound `CCCCCCCCCCCCCCCCCCOP(=O)([O-])OCC[N+](C)(C)C` [D 19391], the “Growth inhibition index WHI in % in vivo/humane KB tumour cell line transplanted into nude” value in assay [1] is 11%. Moreover, the IC90 in assay [2] stood at 0.31 µg/mL (≈ 0.712 µM).

Consider `CCCCCCCCCCCCCCCCCCOP(=O)([O-])OCC[N+]1(C)CCCCCC1` [D20918], for which, in assay [1], the “Growth inhibition index WHI in % in vivo/humane KB tumour cell line transplanted into nude” value amounted to 0%. The IC90 in assay [2] was 1 µg/mL (≈ 2.04 µM).

For the compound `CCCCCCCCCCCCCCCCCCOP(=O)([O-])OCC[N+]1(C)CCCCC1` [D 20133, Octadecyl-[2-(N-methylpiperidino)-ethyl]-phosphate], the “regression of the KB tumors” value in assay [1] (2×316 mg/kg body weight, given at intervals of one week) is listed as “achieved a regression of the KB tumors”. The “Growth inhibition index WHI in % in vivo/humane KB tumour cell line transplanted into nude” value in assay [1] is on record as 121%. Moreover, the IC90 in assay [2] is 0.3 µg/mL (≈ 0.631 µM). For the same compound, the “regression of DMBA tumors weighing 5 g” value in assay [3] was “regressed to the borderline of palpability”. Also, the “inhibition of blood platelet aggregation” value in assay [4] was “causes inhibition of blood platelet aggregation”. In assay [5], the phospholipase-A2-inhibiting effect entry is “phospholipase-A2 -inhibiting”. Further, the lipoxygenase-inhibiting effect entry in assay [6] is “lipoxygenase-inhibiting effect”.

On to `CCCCCCCCCCCCCCCCCCOP(=O)([O-])OCC[N+]1(CC)CCCCC1` [D 20931], for which the “Growth inhibition index WHI in % in vivo/humane KB tumour cell line transplanted into nude” value in assay [1] stood at 13%. In addition, the IC90 in assay [2] came out at 1 µg/mL (≈ 2.04 µM).

Turning to `CCCCCCCCCCCCCCCCCCOP(=O)([O-])OCC[n+]1ccccc1` [D 19862], the “Growth inhibition index WHI in % in vivo/humane KB tumour cell line transplanted into nude” value in assay [1] is given as 0%. In addition, the IC90 in assay [2] was over 1 µg/mL.

On to `CCCCCCCCCCCCCCCCCCOP(=O)([O-])OCC[N+]1(C)CCOCC1` [D 20680], for which, in assay [1], the “Growth inhibition index WHI in % in vivo/humane KB tumour cell line transplanted into nude” value worked out at 0%. The IC90 in assay [2] was over 10 µg/mL.
